The values below come from the NIST ThermoML archive (doi:10.1021/acs.jced.7b00768).

± gives the expanded uncertainty stated by the source.

The conditions of data set [1]: Crystal; DSC.
A short description of data set [2]: Molar enthalpy of transition or fusion. The note with it: Crystal; DSC.

Take `C[N+](C)(C)C[C@H](O)CC(=O)[O-].O=C(O)/C=C/C(=O)O` [L-carnitine fumarate]: the Triple point temperature in data set [1] stood at 412.2 ± 0.8 K. Also, in data set [2], the “Molar enthalpy of transition or fusion” value is 12.2 ± 0.335 kcal/mol.
